Measured values from publication PMC9181987, “Disclosing the Potential of Fluorinated Ionic Liquids as Interferon-Alpha 2b Delivery Systems” (Nanomaterials, 2022).
Several values for one entry are separate records, joined by “and”; a condition that tells them apart may be missing. Equal values may be shown once.

Key:
[1] = Conductivity titration: critical aggregation concentrations, ionization degree, Gibbs free energy of aggregation; format: physicochemical; parameters: First CAC (wFIL) / Third CAC (wFIL): unit not given here; settings: 25°C
Method: For this purpose, a CDM210 conductometer (Radiometer Analytical, Lyon, France) and a CDC749 electrode (Radiometer Analytical, Lyon, France) were utilized. The electrode was calibrated at 25 °C using two standard solutions of 0.1 and 0.01 D KCl (Radiometer Analytical). The standard solutions and samples were measured inside of a glass cell in a thermostated bath at 25 °C with constant magnetic stirring. […] Each sample was then placed on the cell, stirred, and had its ionic conductivity measured. […] This experimental procedure was carried out until the ionic conductivity reached a plateau. […] The ionic conductivity was measured at least three times before adding more solution and the uncertainty of each measurement was estimated to be less than 1%.
A thorough analysis of the conductivity profile was advanced by applying the Phillips definition, which studies the change of the slopes of the conductivity curve along with the variation in FIL concentration.
From the parameter α, the degree of counterion binding, β, can be calculated. This parameter is associated with the charge density at the surface, the size, and the hydrophobic nature of the aggregate. It is given by the following equation:β = 1 − α(1)
Another parameter was considered in this study related to the spontaneity of a surfactant to aggregate, given by the standard Gibbs free energy of aggregation, ΔGagg0 . This parameter is provided by the pseudophase model of micellization, using the equation:(2) ΔGagg0=RT(1+β)lnxCAC where R is the universal gas constant, T is the absolute temperature and xCAC corresponds to the value of CAC in molar fraction. As long as this parameter is more negative, this means that the process of aggregation in the specific CACs is more spontaneous.

[2] = Contact angle goniometry breakpoints; format: physicochemical; settings: 25°C
Method: The force tensiometer is equipped with a platinum Du Noüy ring to surface tension measurement and a thermostatic vessel connected to a bath circulator (RW-0535G, Lab. Companion, Daejeon, Republic of Korea) in order to keep the temperature of the solution constant. Next, 15 mL of each sample was placed in a glass container and left to equilibrate in the thermostatic vessel. After temperature equilibration, the surface tension was measured. The equipment is a standalone-controlled instrument, and the calibration was conducted with a calibration weight with a known mass before measuring the samples. Each sample was measured five times, and the reported surface tension was the average value with an uncertainty of ±0.22 mN/m. Each solution was then assessed by a KSV’s contact angle goniometer CAM100 (Biolin Scientific, Gothenburg, Sweden). A drop of each solution was placed on a Teflon surface with a Hamilton syringe. This equipment is a PC-controlled instrument, and the tilt was set to 0 degrees at the base of the drop and was recorded for 10 frames with an interval of 1 s. The contact angle was calculated for the left and right sides of the drop and the mean value was the resulting contact angle. At least five different drops of each solution were recorded, and the reported contact angle was the resulting average with an uncertainty of ±5%.

[3] = parameters: method as in earlier work; settings: 25°C, ref [1], cited from earlier work
[4] = cited from earlier work
[5] = 10 μg/mL IFN-α 2b + 5 mM NaH2PO4 (pH=7.4)
[6] = 5 μg/mL IFN-α 2b + 5 mM NaH2PO4 (pH=7.4), 1st breakpoint
[7] = 5 μg/mL IFN-α 2b + 5 mM NaH2PO4 (pH=7.4), 2nd breakpoint
[8] = 5 μg/mL IFN-α 2b + 5 mM NaH2PO4 (pH=7.4), 3rd breakpoint
[9] = 5 μg/mL IFN-α 2b + 5 mM NaH2PO4 (pH=7.4), 4th breakpoint

CCn1cc[n+](C)c1.O=S(=O)([O-])C(F)(F)C(F)(F)C(F)(F)C(F)(F)F [[C2C1Im][C4F9SO3], 1-Ethyl-3-methylimidazolium perfluorobutanesulfonate]
First CAC [1, 5]: 15.19 mmol/kg
First CAC (wFIL) [1, 5]: 0.0062
Gibbs free energy of aggregation ΔG0agg, First CAC [1, 5]: -5.5 kcal/mol
Gibbs free energy of aggregation ΔG0agg, Second CAC [1, 5]: -4.85 kcal/mol
Gibbs free energy of aggregation ΔG0agg, Third CAC [1, 5]: -5.69 kcal/mol
Second CAC [1, 5]: 43.57 mmol/kg
Second CAC (wFIL) [1, 5]: 0.0179
Third CAC [1, 5]: 83.44 mmol/kg
Third CAC (wFIL) [1, 5]: 0.0342
ionization degree α, First CAC [1, 5]: 0.87
ionization degree α, Second CAC [1, 5]: 0.85
ionization degree α, Third CAC [1, 5]: 0.52
First CAC ([1]; 5 mM NaH2PO4 (pH=7.4)): 13.75 mmol/kg
First CAC (wFIL) ([1]; 5 mM NaH2PO4 (pH=7.4)): 0.0056
Gibbs free energy of aggregation ΔG0agg, First CAC ([1]; 5 mM NaH2PO4 (pH=7.4)): -5.66 kcal/mol
Gibbs free energy of aggregation ΔG0agg, Second CAC ([1]; 5 mM NaH2PO4 (pH=7.4)): -4.83 kcal/mol
Gibbs free energy of aggregation ΔG0agg, Third CAC ([1]; 5 mM NaH2PO4 (pH=7.4)): -6.36 kcal/mol
Second CAC ([1]; 5 mM NaH2PO4 (pH=7.4)): 46.13 mmol/kg
Second CAC (wFIL) ([1]; 5 mM NaH2PO4 (pH=7.4)): 0.0189
Third CAC ([1]; 5 mM NaH2PO4 (pH=7.4)): 83.13 mmol/kg and 80.35 mmol/kg
Third CAC (wFIL) ([1]; 5 mM NaH2PO4 (pH=7.4)): 0.0341
ionization degree α, First CAC ([1]; 5 mM NaH2PO4 (pH=7.4)): 0.85
ionization degree α, Second CAC ([1]; 5 mM NaH2PO4 (pH=7.4)): 0.85
ionization degree α, Third CAC ([1]; 5 mM NaH2PO4 (pH=7.4)): 0.34
First CAC ([1]; 25 mM KH2PO4 (pH=6.8)): 1.99 mmol/kg
First CAC (wFIL) ([1]; 25 mM KH2PO4 (pH=6.8)): 0.0008
Gibbs free energy of aggregation ΔG0agg, First CAC ([1]; 25 mM KH2PO4 (pH=6.8)): -10.7 kcal/mol
Gibbs free energy of aggregation ΔG0agg, Second CAC ([1]; 25 mM KH2PO4 (pH=6.8)): -5.76 kcal/mol
Gibbs free energy of aggregation ΔG0agg, Third CAC ([1]; 25 mM KH2PO4 (pH=6.8)): -7.15 kcal/mol
Second CAC ([1]; 25 mM KH2PO4 (pH=6.8)): 38.64 mmol/kg
Second CAC (wFIL) ([1]; 25 mM KH2PO4 (pH=6.8)): 0.0158
Third CAC ([1]; 25 mM KH2PO4 (pH=6.8)): 71.45 mmol/kg
Third CAC (wFIL) ([1]; 25 mM KH2PO4 (pH=6.8)): 0.0293
ionization degree α, First CAC ([1]; 25 mM KH2PO4 (pH=6.8)): 0.24
ionization degree α, Second CAC ([1]; 25 mM KH2PO4 (pH=6.8)): 0.66
ionization degree α, Third CAC ([1]; 25 mM KH2PO4 (pH=6.8)): 0.18
First CAC ([1]; 100 mM HCl (pH=1.2)): 4.65 mmol/kg
First CAC (wFIL) ([1]; 100 mM HCl (pH=1.2)): 0.0019
Gibbs free energy of aggregation ΔG0agg, First CAC ([1]; 100 mM HCl (pH=1.2)): -11.1 kcal/mol
ionization degree α, First CAC ([1]; 100 mM HCl (pH=1.2)): 0.003
First CAC ([1]; 150 mM NaCl (pH=7.3)): 3.51 mmol/kg
First CAC (wFIL) ([1]; 150 mM NaCl (pH=7.3)): 0.0014
Gibbs free energy of aggregation ΔG0agg, First CAC ([1]; 150 mM NaCl (pH=7.3)): -10.7 kcal/mol
Gibbs free energy of aggregation ΔG0agg, Second CAC ([1]; 150 mM NaCl (pH=7.3)): -5.47 kcal/mol
Gibbs free energy of aggregation ΔG0agg, Third CAC ([1]; 150 mM NaCl (pH=7.3)): -7 kcal/mol
Second CAC ([1]; 150 mM NaCl (pH=7.3)): 33.69 mmol/kg
Second CAC (wFIL) ([1]; 150 mM NaCl (pH=7.3)): 0.0138
Third CAC ([1]; 150 mM NaCl (pH=7.3)): 83.46 mmol/kg
Third CAC (wFIL) ([1]; 150 mM NaCl (pH=7.3)): 0.0342
ionization degree α, First CAC ([1]; 150 mM NaCl (pH=7.3)): 0.14
ionization degree α, Second CAC ([1]; 150 mM NaCl (pH=7.3)): 0.75
ionization degree α, Third CAC ([1]; 150 mM NaCl (pH=7.3)): 0.17
First CAC ([1]; 150 mM NaH2PO4 (pH=7.4)): 14.57 mmol/kg
First CAC (wFIL) ([1]; 150 mM NaH2PO4 (pH=7.4)): 0.0060
Gibbs free energy of aggregation ΔG0agg, First CAC ([1]; 150 mM NaH2PO4 (pH=7.4)): -5.59 kcal/mol
Gibbs free energy of aggregation ΔG0agg, Second CAC ([1]; 150 mM NaH2PO4 (pH=7.4)): -5.16 kcal/mol
Gibbs free energy of aggregation ΔG0agg, Third CAC ([1]; 150 mM NaH2PO4 (pH=7.4)): -7.05 kcal/mol
Second CAC ([1]; 150 mM NaH2PO4 (pH=7.4)): 32.93 mmol/kg
Second CAC (wFIL) ([1]; 150 mM NaH2PO4 (pH=7.4)): 0.0135
Third CAC ([1]; 150 mM NaH2PO4 (pH=7.4)): 68.76 mmol/kg
Third CAC (wFIL) ([1]; 150 mM NaH2PO4 (pH=7.4)): 0.0282
ionization degree α, First CAC ([1]; 150 mM NaH2PO4 (pH=7.4)): 0.85
ionization degree α, Second CAC ([1]; 150 mM NaH2PO4 (pH=7.4)): 0.82
ionization degree α, Third CAC ([1]; 150 mM NaH2PO4 (pH=7.4)): 0.21
CAC (wFIL), goniometer [2, 6]: 0.0009
CAC, goniometer [2, 6]: 2.101 mmol⸱kg-1
CAC (wFIL), goniometer [2, 7]: 0.0030
CAC, goniometer [2, 7]: 7.288 mmol⸱kg-1
CAC (wFIL), goniometer [2, 8]: 0.0157
CAC, goniometer [2, 8]: 38.18 mmol⸱kg-1
CAC (wFIL), goniometer [2, 9]: 0.0430
CAC, goniometer [2, 9]: 104.7 mmol⸱kg-1
CAC (wFIL), goniometer ([2]; 5 mM NaH2PO4 (pH=7.4)): 0.0329
CAC, goniometer ([2]; 5 mM NaH2PO4 (pH=7.4)): 80.27 mmol⸱kg-1
Amin, minimum area per surfactant molecule at the air/water interface [3]: 0.64 nm2
10^6 Γmax, maximum surface excess concentration ([3]; Water): 2.60 mol m-2
CAC (wFIL), tensiometer ([3]; Water): 0.0375
CAC, tensiometer ([3]; Water): 91.39 mmol⸱kg-1
critical packing parameter Peq 8 ([3]; Water): 0.439
critical packing parameter Peq 9 ([3]; Water): 0.442
surface tension at CAC, γCAC ([3]; Water): 24.5 mN m-1
ΔG0ad, standard free energy of adsorption ([3]; Water): -10.6 kcal/mol
ΠCAC, efficacy to reduce the surface tension ([3]; Water): 44.4 mN m-1
toxicity [4]: negligible toxicity
